Experimental data as given in BigSolDB 2.1.

CC(CN1c2ccccc2S(=O)(=O)c2ccccc21)N(C)C.Cl (centres undefined)
Conditions	solubility (mole fraction)
in DMF, 278.2 K	0.00381
in DMF, 283.2 K	0.00418
in DMF, 288.27 K	0.00448
in DMF, 293.18 K	0.00474
in DMF, 298.17 K	0.00514
in DMF, 303.19 K	0.00554
in DMF, 308.23 K	0.00601
in DMF, 313.17 K	0.00658
in DMF, 318.23 K	0.00716
in DMF, 323.18 K	0.00783
in NMP, 278.16 K	0.00641
in NMP, 283.2 K	0.00692
in NMP, 288.24 K	0.00747
in NMP, 293.16 K	0.00791
in NMP, 298.17 K	0.00843
in NMP, 308.17 K	0.00975
in NMP, 313.21 K	0.0104
in NMP, 318.23 K	0.0111
in NMP, 323.27 K	0.0119
in acetic acid, 293.16 K	0.00208
in acetic acid, 298.18 K	0.00277
in acetic acid, 303.18 K	0.00347
in acetic acid, 308.2 K	0.00433
in acetic acid, 313.17 K	0.00548
in acetic acid, 318.22 K	0.00689
in acetic acid, 328.23 K	0.01
in acetic acid, 333.19 K	0.0123
in acetic acid, 338.2 K	0.0149
in acetone, 278.2 K	0.000103
in acetone, 283.16 K	0.000124
in acetone, 288.16 K	0.00015
in acetone, 293.17 K	0.000177
in acetone, 298.18 K	0.000199
in acetone, 303.17 K	0.000216
in acetone, 308.21 K	0.000237
in acetone, 313.2 K	0.000258
in acetone, 318.18 K	0.000278
in acetone, 323.17 K	0.000298
in ethanol, 278.16 K	0.000269
in ethanol, 283.21 K	0.000296
in ethanol, 288.22 K	0.000322
in ethanol, 293.18 K	0.000365
in ethanol, 298.21 K	0.000419
in ethanol, 303.22 K	0.0005
in ethanol, 308.18 K	0.000589
in ethanol, 313.17 K	0.000686
in ethanol, 318.2 K	0.000829
in methanol, 278.17 K	0.000759
in methanol, 283.22 K	0.000925
in methanol, 288.19 K	0.00112
in methanol, 293.26 K	0.00137
in methanol, 298.17 K	0.00156
in methanol, 303.19 K	0.00185
in methanol, 308.21 K	0.00225
in methanol, 313.21 K	0.00284
in methanol, 318.18 K	0.0034
in water, 278.28 K	0.00136
in water, 283.27 K	0.00163
in water, 288.27 K	0.002
in water, 293.24 K	0.00246
in water, 298.18 K	0.00302
in water, 303.18 K	0.00379
in water, 308.16 K	0.00484
in water, 313.22 K	0.00625
